In patent publication US20260242373A1, “NBD1 MODULATORS AND METHODS OF USING THE SAME” (Sionna Therapeutics Inc., priority 2023, published 2026):

Columns and labels:
[1] = system: Primary human bronchial epithelial cells from a ΔF508 homozygous CF donor (CF-HBE cells); assay: TECC24 recording of CFTR-mediated transepithelial chloride transport, AUC fold over DMSO; type: cell-based; details: 48 hours incubation, ratio of test agent AUC to vehicle AUC of forskolin-stimulated IEQ
Description: The effects of a test agent on CFTR-mediated transepithelial chloride transport was measured using TECC24 recording analysis. Test agents were solubilized in DMSO. Solubilized test agents were mixed with incubation medium containing DMEM/F12, Ultroser G (2%; Crescent Chemical, catalog #67042), Hyclone Fetal Clone 11 (2%; GE Healthcare, catalog #SH30066.02), bovine brain extract (0.25%; Lonza, catalog #CC-4098), insulin (2.5 μg/mL), IL-13 (10 ng/mL), hydrocortisone (20 nM), transferrin ([…]), triiodothyronine (500 nM), ethanolamine (250 nM), epinephrine (1.5 μM), phosphoethanolamine (250 nM), and retinoic acid (10 nM). Primary human bronchial epithelial cells from a ΔF508 homozygous CF donor (CF-HBE cells; from University of North Carolina Cystic Fibrosis Tissue Procurement Center), grown on Transwell HTS 24-well cell culture inserts (Costar, catalog #3378), were exposed to test agents or controls dissolved in incubation medium. The CF-HBE cells were cultured at 36.5° C. for 48 hours before TECC24 recordings were performed in the presence or absence of test agent, a positive control or vehicle (DMSO).
Following incubation, the transwell cell culture inserts containing the test agent or control-treated CF-HBE cells were loaded onto a TECC24 apparatus (TECC v7 or MTECC v2; EP Design) to record the transepithelial voltage (VT) and resistance (TEER) using 4 AgCl electrodes per well configured in current-clamp mode. The apical and basolateral bath solutions both contained (in mM) 140 NaCl, 5 KCl, 2 CaCl2), 1 MgCl2, 10 Hepes, and 10 glucose (adjusted to pH 7.4 with NaOH). To inhibit basal Na+ absorption, the ENaC inhibitor benzamil (10 μM) was added to the bath. Then, the adenylate cyclase activator, forskolin ([…]), was added to the bath to activate CFTR. The forskolin-stimulated Cl— transport was halted by addition of CFTR inhibitor-172 ([…]) to the bath at the end of the experiment to confirm specificity. […] Efficacy is expressed as the ratio of the test agent AUC divided by vehicle AUC. […]

[2] = system: NBD1; assay: Aggregation analysis of NBD1 thermal stability by differential static light scattering (DSLS); type: binding, Human; details: 100 μM compound; ΔTagg versus DMSO control
Description: Purified recombinant NBD1 was produced using previously described methods (A. Schmidt, J. L. Mendoza, P. J. Thomas (2011) Biochemical and Biophysical Approaches to Probe CFTR Structure (365-376) M. D. Amaral, K. Kunzelmann (eds.), Cystic Fibrosis, Methods in Molecular Biology 741, Springer Science+Business Media). The effect of test compounds on thermal stability of NBD1 was evaluated by differential static light scattering (DSLS) using the Harbinger Stargazer-384 instrument (Epiphyte Three, Toronto, Canada). Test compounds were dissolved and diluted to desired concentrations in 100% DMSO. The compounds or DMSO controls (100 nL) were stamped into wells of a […] low volume optical plate (Corning Inc., Corning, NY) using the Echo 555 acoustic liquid handler (Labcyte Inc., San Jose, CA).
NBD1 protein was diluted to 0.2 mg/ml in S200 buffer (50 mM Tris-HCl, 150 mM NaCl, 5 mM MgCl2, 2 mM ATP, 2 mM DTT, pH7.6) containing 1% glycerol. 10 uL of protein solution was aliquoted into the 384-well plate harboring the test compounds and 10 uL mineral oil was overlayed onto the protein solution, using the epMotion robotic liquid handler (Eppendorf North America, Hauppauge, NY). After placing into the Stargazer instrument, the plate was heated at 1° C. per minute to 70° C. Images were captured from 25° C. to 70° C. every 0.5° C. At the end of the experiment run, instrument software integrated image files and analyzed data automatically. A […] regression curve was generated for each well, representing the increase in light scattering over time. A temperature of aggregation (Tagg) was calculated based on the inflection point of the curve. To better compare data across experiments the average Tagg for DMSO control wells was calculated and subtracted from values for wells containing compounds to obtain a “ΔTagg” value. These ΔTagg values reflect stabilizing efficacy of the compounds.

Structure (SMILES)	TECC24 @ 10 uM over DMSO [1]	DSLS NBD1/3D Human Stability delta-T (° C.) @ 100 (μM) [2]
Cc1c(Oc2ccc(F)c(-c3nc(Cc4csc(CCC(=O)O)c4)c[nH]3)c2)c(F)cc2[nH]ccc12 [Compound 4, 3-(4-((2-(2-fluoro-5-((6-fluoro-4-methyl-1H-indol-5-yl)oxy)phenyl)-1H-imidazol-4-yl)methyl)thiophen-2-yl)propanoic acid]	C (“C” refers to AUC @ 10 uM <=4)	B (B: 4-8° C.)
C[C@@H](c1nc(-c2cc(Oc3c(F)cc4[nH]ccc4c3F)ccc2F)n(C)n1)c1ccc(CCC(=O)O)s1 (single isomer, unassigned) [Compound 44]	C (“C” refers to AUC @ 10 uM <=4)	B (B: 4-8° C.)
c1cc(Oc2ccc3[nH]ccc3c2)cc(-c2nnc(Cc3cccs3)[nH]2)c1 [Compound 10, 5-(3-(5-(thiophen-2-ylmethyl)-4H-1,2,4-triazol-3-yl)phenoxy)-1H-indole]	C (“C” refers to AUC @ 10 uM <=4)	C (C: ≤4° C.)
Cc1ncc(C(N)c2nnc(-c3cccc(Oc4ccc5[nH]cnc5c4)c3)[nH]2)s1 (stereo not shown) [Compound 36, (5-(3-((1H-benzo[d]imidazol-5-yl)oxy)phenyl)-4H-1,2,4-triazol-3-yl)(2-methylthiazol-5-yl)methanamine]		C (C: ≤4° C.)
CC(c1cccc(CCC(=O)O)c1F)c1nn(-c2cc(Oc3c(F)cc4[nH]ccc4c3F)ccc2F)c2c1CCC2 (stereo not shown) [Compound 59, 3-[3-[1-[1-[5-[(4,6-difluoro-1H-indol-5-yl)oxy]-2-fluoro-phenyl]-5,6-dihydro-4H-cyclopenta[c]pyrazol-3-yl]ethyl]-2-fluoro-phenyl]propanoic acid]		C (C: ≤4° C.)
c1cc(Oc2ccc3[nH]ccc3c2)cc(-c2nnc(Cc3cncs3)[nH]2)c1 [Compound 14, 5-((5-(3-((1H-indol-5-yl)oxy)phenyl)-4H-1,2,4-triazol-3-yl)methyl)thiazole]		C (C: ≤4° C.)
CC(c1cccc(CCC(=O)O)c1F)c1nc(-c2cc(Oc3c(F)cc4[nH]ccc4c3F)ccc2F)n2ccccc12 (stereo not shown) [Compound 46, 3-(3-(1-(3-(5-((4,6-difluoro-1H-indol-5-yl)oxy)-2-fluorophenyl)imidazo[1,5-a]pyridin-1-yl)ethyl)-2-fluorophenyl)propanoic acid]		C (C: ≤4° C.)
Cc1c(Oc2ccc(F)c(-c3nc(Cc4csc(CCC(=O)O)n4)c[nH]3)c2)c(F)cc2[nH]ccc12 [Compound 1, 3-(4-((2-(2-fluoro-5-((6-fluoro-4-methyl-1H-indol-5-yl)oxy)phenyl)-1H-imidazol-4-yl)methyl)thiazol-2-yl)propanoic acid]		B (B: 4-8° C.)
Cn1nccc1C(O)c1cnc(-c2cccc(Oc3ccc4[nH]cnc4c3)c2)[nH]1 (stereo not shown) [Compound 29, (2-(3-((1H-benzo[d]imidazol-5-yl)oxy)phenyl)-1H-imidazol-5-yl)(1-methyl-1H-pyrazol-5-yl)methanol]		C (C: ≤4° C.)
OC(Cc1nccs1)c1cnc(-c2cccc(Oc3ccc4[nH]cnc4c3)c2)[nH]1 (stereo not shown) [Compound 34, 1-(2-(3-((1H-benzo[d]imidazol-5-yl)oxy)phenyl)-1H-imidazol-5-yl)-2-(thiazol-2-yl)ethan-1-ol]		C (C: ≤4° C.)
